According to PMC11638965, “Leveraging Dual-Ligase Recruitment to Enhance Protein Degradation via a Heterotrivalent Proteolysis Targeting Chimera” (Journal of the American Chemical Society, 2024):
Entries after “also recorded” stand apart in the source; their conditions may differ. Read-outs that look alike come from different tables or passages of the source.

Tests used:
RKO VHL KO cells = test: Cell viability assay (CellTiter-Glo); format: cell-based, human
Experimental: (§1) RKO WT, VHL KO, CRBN KO and CRBN/VHL dKO cells were cultured in Dulbecco’s modified Eagle’s medium supplemented with 10% FCS and 1% penicillin–streptomycin. RKO CRBN KO and VHL KO were generated previously.[45] RKO CRBN/VHL dKO cells were generated by transiently expressing pSpCas9(BB)-2A-GFP (PX458) (Addgene 48138) loaded with a short guide RNA (sgRNA) targeting VHL (Fwd: […], Rev: […]) in RKO CRBN KO cells. Clones were single cell seeded and checked for VHL and CRBN double deletion via Western blot or PCR on genomic DNA (gDNA).
(§2) Cells were seeded in 96-well plates at a cell density of 3750 cells per well and treated for 3 days with DMSO or drug at ten √10 serial diluted concentrations. Starting concentration for all drugs was 10 μM, and each treatment was performed in biological triplicates. Cell viability was assessed using the CellTiter-Glo assay (CellTiter-Glo Luminescent Cell Viability Assay, Promega G7573) according to manufacturer instructions. Luminescence signal was measured on a Multilabel Plate Reader Platform Victor X3 model 2030 (PerkinElmer). Survival curves and EC50 values were determined using GraphPad Prism v.10.0.3 by fitting a nonlinear regression to the log10-transformed drug concentration and the relative viability after normalization of each data point to the mean luminescence of the lowest drug concentration.

RKO CRBN KO cells [1] = test: Cell viability assay (CellTiter-Glo); format: cell-based, human; details: 316 pM to 10 μM, 3 days, n = 3 (Figures 5 and 8C, Table S5)
Experimental: as §1, §2

RKO CRBN/VHL dKO cells = test: Cell viability assay (CellTiter-Glo); format: cell-based, human; details: read-out: EC50 RKO CRBN/VHL dKO
Experimental: as §1, §2

CRBN = CRBN (Homo sapiens, UniProt Q96SW2); test: NanoBRET lytic and live cell target engagement assay; format: binding; set-up: host or cells: HEK293, transient; details: for IC50: HEK293 cells with NanoLuc-CRBN, CRBN fluorescent tracer
Sequence of CRBN (Q96SW2 whole entry, the tested form may be a part): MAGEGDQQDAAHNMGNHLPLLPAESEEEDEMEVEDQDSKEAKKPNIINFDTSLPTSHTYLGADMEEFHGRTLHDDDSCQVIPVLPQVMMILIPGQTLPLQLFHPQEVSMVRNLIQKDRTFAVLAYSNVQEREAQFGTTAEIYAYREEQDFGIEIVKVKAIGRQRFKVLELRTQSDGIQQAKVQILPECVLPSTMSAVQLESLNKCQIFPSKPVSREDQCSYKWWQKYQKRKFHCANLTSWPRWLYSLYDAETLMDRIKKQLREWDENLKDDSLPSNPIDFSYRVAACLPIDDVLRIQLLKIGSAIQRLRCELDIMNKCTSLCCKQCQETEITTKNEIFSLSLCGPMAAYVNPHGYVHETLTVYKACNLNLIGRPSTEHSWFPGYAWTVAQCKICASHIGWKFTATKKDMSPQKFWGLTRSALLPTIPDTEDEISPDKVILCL
Sequence of CRBN (Q16531 whole entry partner, the tested form may be a part): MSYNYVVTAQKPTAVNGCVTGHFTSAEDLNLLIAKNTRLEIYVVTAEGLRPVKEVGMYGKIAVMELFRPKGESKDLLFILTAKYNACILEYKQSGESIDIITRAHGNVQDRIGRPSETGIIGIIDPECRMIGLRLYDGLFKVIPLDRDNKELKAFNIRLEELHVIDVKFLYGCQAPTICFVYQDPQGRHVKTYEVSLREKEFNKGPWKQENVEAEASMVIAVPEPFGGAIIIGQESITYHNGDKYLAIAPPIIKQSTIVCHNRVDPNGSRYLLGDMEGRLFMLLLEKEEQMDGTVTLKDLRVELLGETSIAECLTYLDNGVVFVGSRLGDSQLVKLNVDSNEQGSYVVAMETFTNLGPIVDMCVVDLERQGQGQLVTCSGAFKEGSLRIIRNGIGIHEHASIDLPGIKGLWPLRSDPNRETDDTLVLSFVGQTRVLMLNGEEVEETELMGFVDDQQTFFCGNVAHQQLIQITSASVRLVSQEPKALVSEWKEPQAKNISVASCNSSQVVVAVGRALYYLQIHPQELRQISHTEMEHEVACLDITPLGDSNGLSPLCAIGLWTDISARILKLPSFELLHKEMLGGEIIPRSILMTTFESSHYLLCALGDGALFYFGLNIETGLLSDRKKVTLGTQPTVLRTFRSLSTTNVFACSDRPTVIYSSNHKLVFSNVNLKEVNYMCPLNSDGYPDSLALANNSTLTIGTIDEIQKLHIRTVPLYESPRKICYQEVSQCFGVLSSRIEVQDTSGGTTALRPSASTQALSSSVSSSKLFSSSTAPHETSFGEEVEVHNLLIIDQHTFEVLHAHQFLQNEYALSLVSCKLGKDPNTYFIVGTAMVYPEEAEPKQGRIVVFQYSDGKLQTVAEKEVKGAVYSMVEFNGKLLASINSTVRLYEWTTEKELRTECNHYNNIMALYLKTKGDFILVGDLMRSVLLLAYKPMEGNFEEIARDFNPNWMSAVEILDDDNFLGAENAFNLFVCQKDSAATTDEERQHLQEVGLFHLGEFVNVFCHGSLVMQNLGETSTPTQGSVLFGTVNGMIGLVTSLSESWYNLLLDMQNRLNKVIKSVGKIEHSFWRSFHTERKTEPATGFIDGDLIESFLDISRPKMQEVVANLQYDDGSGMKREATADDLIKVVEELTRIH
Experimental: CRBN (N2910, Promega) and VHL (N2930, Promega) NanoBRET target engagement assays were performed according to manufacturer’s instructions. Transfection complexes were prepared using 1 mL Opti-MEM, 30 μL FuGENE HD, and either 9 μg/mL DDB1 Expression Vector and 1 μg/mL NanoLuc-CRBN fusion vector, or 9 μg/mL Transfection Carrier DNA and 1 μg/mL VHL-NanoLuc fusion vector. Transfection complexes were allowed to form for 20 min at room temperature, then were added to 20 mL of HEK293 cells at density of 200,000 cells/mL. Transfected HEK293 cells were plated in a T75 flask and allowed to express protein overnight. The next day, 85 μL of transfected cells (at 200,000 cells/mL) were replated in white nonbinding 96-well plates for live and lytic target engagement measurements. For live mode, a 100x solution of NanoBRET tracer was prepared using 100% DMSO (50 μM for CRBN live-cell, 100 μM for VHL live-cell). 100x tracer was used to prepare 20× tracer using tracer dilution buffer. PROTACs or test compounds were prepared at 10x final concentrations in Opti-MEM. Five μL of the prepared tracer was then dispensed to each well and the plate was mixed on an orbital shaker at 300 rpm for 15 s. Ten μL of each 10x PROTAC dilution was added to the cells and the plate was mixed again before being incubated at a 37 °C, 5% CO2 incubator for 2 or 5 h (as indicated in each figure). After incubation, a 50 μL of a 3X substrate solution (containing 30 μL NanoBRET Nano-Glo Substrate, 10 μL Extracellular NanoLuc inhibitor, and 4960 μL of Opti-MEM) was added to each well. Plates were incubated for 2–3 min at room temperature, then donor emission (450 nm) and acceptor emission (at 610 nm) values were read using a GloMax Discover. For lytic mode, the following changes were made. […] Plates were incubated in darkness for 5 min after digitonin addition to allow for permeabilization. 50 μL of 3X substrate (30 μL NanoBRET Nano-Glo substrate and 4970 μL Opti-MEM) was added to each well and plates were incubated for 1 min at room temperature before being read on a GloMax Discover as above.

RKO CRBN KO cells [2] = test: Cell viability assay (CellTiter-Glo); format: cell-based, human; details: 500 pM to 10 μM, 3 days (Figure 10, Table S6)
[3] = test system: HiBiT-BRD4 and HaloTag-CRBN; test: NanoBRET live cell ternary complex formation assay; format: cell-based, human
Experimental: NanoBRET ternary complex assays were performed using Promega kits for CRBN (ND2720) and VHL (ND2700) according to manufacturer’s instructions. One day prior to the assay, HEK293 HiBiT-BRD4 (LgBiT Stable) were plated at a density of 800,000 cells/well in a 6-well plate. Cells were allowed to adhere for at least 4 h. Transfection mixtures containing 100 μL Opti-MEM, 6 μL FuGENE HD, and either 2 μg HaloTag-CRBN or HaloTag-VHL were prepared and allowed to incubate for 10 min at room temperature prior to addition to the cells. The next day, cells were trypsinized and resuspended in phenol red-free Opti-MEM Reduced Serum Medium supplemented with 4% FBS. Cells were counted and density was adjusted to 200,000 cells/mL. Cells were divided into two pools: one which received HaloTag NanoBRET 618 Ligand at a final concentration of 100 nM and one which received the same volume of DMSO. Cells were plated on white tissue-culture 96-well plates (100 μL/well) and allowed to adhere overnight. The next day, media was aspirated from the cells and replaced with phenol red-free Opti-MEM Reduced Serum medium supplemented with 4% FBS and a 1:100 dilution of Nano-Glo Vivazine substrate (Promega) and 10 μM MG132. Luminescence was allowed to equilibrate at 37 °C, 5% CO2 for 1 h. During this time, a dilution series of each PROTAC at 10x the desired final concentration was prepared (keeping DMSO constant in all concentrations). 10 μL of this dilution series was added to the plate after luminescence equilibration, and kinetic measurements of donor emission at 460 nm and acceptor emission at 618 nm were collected every 3 min using a ClarioStar plate reader. milliBRET ratios were calculated as (Emission at 618 nm/Emission at 460 nm) × 1000. Donor-contributed background or bleedthrough was corrected for by subtracting milliBRET ratios from no ligand control cells from treated cells. Corrected milliBRET ratios were plotted as a function of time in GraphPad Prism.

[4] = Homo sapiens, 72 h, 316 pM to 10 μM, 3 days, n = 3 (Figures 5 and 8C, Table S5)
[5] = Homo sapiens, 72 h, 500 pM to 10 μM, 3 days (Figure 10, Table S6)

Compound `Cc1ncsc1-c1ccc(CNC(=O)[C@@H]2C[C@@H](O)CN2C(=O)[C@@H](NC(=O)COCC(COCCOCCOCCNc2cc3c(cc2F)C(=O)N(C2CCC(=O)NC2=O)C3=O)(COCCOCCOCCOC(=O)C[C@@H]2N=C(c3ccc(Cl)cc3)c3c(sc(C)c3C)-n3c(C)nnc32)COCCOCCOCCOC(=O)C[C@@H]2N=C(c3ccc(Cl)cc3)c3c(sc(C)c3C)-n3c(C)nnc32)C(C)(C)C)cc1` (mixture of isomers) [AB3124 (86)] has an EC50 (RKO VHL KO cells; 316 pM to 10 μM, 3 days, n = 3 (Figures 5 and 8C, Table S5), listed as 86) of 34 nM, an EC50 (RKO VHL KO cells; [4]) of 62 nM and an EC50 (RKO CRBN KO cells [1]; listed as 86) of 62 nM. It also gave an EC50 (RKO CRBN KO cells [1]; Homo sapiens, 72 h) of 34 nM and an EC50 (RKO CRBN/VHL dKO cells; [4]) of 16 nM.
With `Cc1ncsc1-c1ccc([C@H](C)NC(=O)[C@@H]2C[C@H](O)CN2C(=O)[C@@H](NC(=O)COCC(C)(COCCOCCOCCNc2cc3c(cc2F)C(=O)N(C2CCC(=O)NC2=O)C3=O)COCCOCCOCCOC(=O)C[C@@H]2N=C(c3ccc(Cl)cc3)c3c(sc(C)c3C)-n3c(C)nnc32)C(C)(C)C)cc1` (mixture of isomers) [cis-AB3067 (94), (17S)-11-((2-(2-(2-((2-(2,6-dioxopiperidin-3-yl)-6-fluoro-1,3-dioxoisoindolin-5-yl)amino)ethoxy)ethoxy)ethoxy)methyl)-17-((2S,4S)-4-hydroxy-2-(((S)-1-(4-(4-methylthiazol-5-yl)phenyl)ethyl)carbamoyl)pyrrolidine-1-carbonyl)-11,18,18-trimethyl-15-oxo-3,6,9,13-tetraoxa-16-azanonadecyl 2-((S)-4-(4-chlorophenyl)-2,3,9-trimethyl-6H-thieno[3,2-f][1,2,4]triazolo[4,3-a][1,4]diazepin-6-yl)acetate] the EC50 (RKO VHL KO cells; [5]) was 48 nM, the EC50 (RKO CRBN/VHL dKO cells; 500 pM to 10 μM, 3 days (Figure 10, Table S6), listed as 94) was about 820 nM and the EC50 (RKO CRBN/VHL dKO cells; [5]) was 804 nM. For the same compound, the “CRBN engagement compared to 27 (in words)” value (CRBN; lytic, live cell 2 h and 5 h (Figure S6), listed as 94) was “slight improvement in binding to CRBN after 2 h; also recorded: even greater binding to CRBN after 5 h compared to 27”, the EC50 (RKO CRBN KO cells [2]; listed as 94) was about 820 nM and the EC50 (RKO CRBN KO cells [2]; Homo sapiens, 72 h) was 832 nM.
`Cc1ncsc1-c1ccc(CNC(=O)[C@@H]2C[C@@H](O)CN2C(=O)[C@@H](NC(=O)COCC(C)(COCCOCCOCCNc2cc3c(cc2F)C(=O)N(C2CCC(=O)NC2=O)C3=O)COCCOCCOCCOC(=O)C[C@@H]2N=C(c3ccc(Cl)cc3)c3c(sc(C)c3C)-n3c(C)nnc32)C(C)(C)C)cc1` (mixture of isomers) [AB3063 (26), (17S)-11-((2-(2-(2-((2-(2,6-dioxopiperidin-3-yl)-6-fluoro-1,3-dioxoisoindolin-5-yl)amino)ethoxy)ethoxy)ethoxy)methyl)-17-((2S,4R)-4-hydroxy-2-((4-(4-methylthiazol-5-yl)benzyl)carbamoyl)pyrrolidine-1-carbonyl)-11,18,18-trimethyl-15-oxo-3,6,9,13-tetraoxa-16-azanonadecyl 2-((S)-4-(4-chlorophenyl)-2,3,9-trimethyl-6H-thieno[3,2-f][1,2,4]triazolo[4,3-a][1,4]diazepin-6-yl)acetate] was tested, and the EC50 (RKO CRBN/VHL dKO cells; [4]) was 2240 nM, the “ternary complex formation between BRD4 and CRBN (in words)” value ([3]; HiBiT-BRD4 HEK293 cells, HaloTag-CRBN, MG132 pretreatment, 0.01, 0.1 and 1 μM, 3.5 h) was “can engage and form ternary complexes” and the “time to plateau of ternary complex signal with CRBN” value ([3]; NanoBRET, HiBiT-BRD4 HEK293 cells with HaloTag-CRBN) was 30 min. It also gave an IC50 (CRBN; live cells 2 h, read-out: IC50 (Live Cell), Target: CRBN) of 1560 nM and an IC50 (CRBN; lysed with digitonin, read-out: IC50 (Lytic Cell), Target: CRBN) of 412 nM.
Work on `Cc1ncsc1-c1ccc([C@H](C)NC(=O)[C@@H]2C[C@H](O)CN2C(=O)[C@@H](NC(=O)COCC(C)(COCCOCCOCCNc2cc3c(cc2F)C(=O)N(C2CCC(=O)N(C)C2=O)C3=O)COCCOCCOCCOC(=O)C[C@@H]2N=C(c3ccc(Cl)cc3)c3c(sc(C)c3C)-n3c(C)nnc32)C(C)(C)C)cc1` (mixture of isomers) [neg-cis-AB3067 (95), (17S)-11-((2-(2-(2-((6-fluoro-2-(1-methyl-2,6-dioxopiperidin-3-yl)-1,3-dioxoisoindolin-5-yl)amino)ethoxy)ethoxy)ethoxy)methyl)-17-((2S,4S)-4-hydroxy-2-(((S)-1-(4-(4-methylthiazol-5-yl)phenyl)ethyl)carbamoyl)pyrrolidine-1-carbonyl)-11,18,18-trimethyl-15-oxo-3,6,9,13-tetraoxa-16-azanonadecyl 2-((S)-4-(4-chlorophenyl)-2,3,9-trimethyl-6H-thieno[3,2-f][1,2,4]triazolo[4,3-a][1,4]diazepin-6-yl)acetate] yielded an EC50 (RKO VHL KO cells; [5]) of 522 nM, an EC50 (RKO CRBN/VHL dKO cells; [5]) of 657 nM and an EC50 (RKO CRBN KO cells [2]; Homo sapiens, 72 h) of 586 nM.
